The text below walks through data of ChEMBL document CHEMBL1139497, “The effects of conformational constraints and steric bulk in the amino acid moiety of philanthotoxins on AMPAR antagonism” (J Med Chem, 2005).

The term IC50 denotes the concentration needed to halve the response being measured. A higher IC50 goes with weaker potency.

In test [1] the target is Glutamate receptor ionotropic, AMPA (Rattus norvegicus, UniProt P19491+P19492+P19493+P19490). The experiment in a line: Inhibition of kainate-induced currents of rat ionotropic glutamate receptor AMPA expressed in Xenopus laevis oocytes; not active. It is filed as cell-based. Conditions: oocyte; call rule not given here.
The target in test [2] is Glutamate receptor ionotropic, AMPA (Rattus norvegicus, UniProt P19490+P19491+P19492+P19493). Description: Inhibition of kainate-induced currents of rat ionotropic glutamate receptor AMPA expressed in Xenopus laevis oocytes. It is filed as cell-based, Oocyte.

Sequence of Glutamate receptor ionotropic, AMPA (Rattus norvegicus, UniProt P19491+P19492+P19493+P19490) (P19491 whole entry): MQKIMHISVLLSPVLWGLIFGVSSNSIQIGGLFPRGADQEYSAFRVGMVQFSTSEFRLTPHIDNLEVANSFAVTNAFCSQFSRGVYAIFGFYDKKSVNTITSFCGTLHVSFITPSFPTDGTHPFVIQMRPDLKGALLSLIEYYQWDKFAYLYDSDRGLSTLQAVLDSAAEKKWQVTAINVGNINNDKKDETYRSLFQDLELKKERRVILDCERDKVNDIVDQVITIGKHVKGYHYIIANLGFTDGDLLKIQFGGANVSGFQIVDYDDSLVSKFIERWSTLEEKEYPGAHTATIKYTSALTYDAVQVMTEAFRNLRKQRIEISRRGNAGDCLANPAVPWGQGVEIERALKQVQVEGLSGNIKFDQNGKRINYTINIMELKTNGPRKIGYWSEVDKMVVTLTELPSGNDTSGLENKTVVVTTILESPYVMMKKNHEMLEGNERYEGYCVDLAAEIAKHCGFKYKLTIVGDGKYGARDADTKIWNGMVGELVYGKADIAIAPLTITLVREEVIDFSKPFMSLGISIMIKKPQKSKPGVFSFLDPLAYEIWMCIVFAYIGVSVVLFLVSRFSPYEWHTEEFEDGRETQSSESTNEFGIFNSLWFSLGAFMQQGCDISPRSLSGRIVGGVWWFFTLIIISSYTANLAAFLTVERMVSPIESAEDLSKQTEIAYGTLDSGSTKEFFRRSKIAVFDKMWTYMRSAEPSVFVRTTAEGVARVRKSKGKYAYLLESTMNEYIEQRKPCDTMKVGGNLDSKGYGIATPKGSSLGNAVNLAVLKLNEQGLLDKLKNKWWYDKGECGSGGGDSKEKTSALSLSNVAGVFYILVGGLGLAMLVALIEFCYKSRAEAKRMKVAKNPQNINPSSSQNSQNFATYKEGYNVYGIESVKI
Sequence of Glutamate receptor ionotropic, AMPA (Rattus norvegicus, UniProt P19491+P19492+P19493+P19490) (P19492 whole entry): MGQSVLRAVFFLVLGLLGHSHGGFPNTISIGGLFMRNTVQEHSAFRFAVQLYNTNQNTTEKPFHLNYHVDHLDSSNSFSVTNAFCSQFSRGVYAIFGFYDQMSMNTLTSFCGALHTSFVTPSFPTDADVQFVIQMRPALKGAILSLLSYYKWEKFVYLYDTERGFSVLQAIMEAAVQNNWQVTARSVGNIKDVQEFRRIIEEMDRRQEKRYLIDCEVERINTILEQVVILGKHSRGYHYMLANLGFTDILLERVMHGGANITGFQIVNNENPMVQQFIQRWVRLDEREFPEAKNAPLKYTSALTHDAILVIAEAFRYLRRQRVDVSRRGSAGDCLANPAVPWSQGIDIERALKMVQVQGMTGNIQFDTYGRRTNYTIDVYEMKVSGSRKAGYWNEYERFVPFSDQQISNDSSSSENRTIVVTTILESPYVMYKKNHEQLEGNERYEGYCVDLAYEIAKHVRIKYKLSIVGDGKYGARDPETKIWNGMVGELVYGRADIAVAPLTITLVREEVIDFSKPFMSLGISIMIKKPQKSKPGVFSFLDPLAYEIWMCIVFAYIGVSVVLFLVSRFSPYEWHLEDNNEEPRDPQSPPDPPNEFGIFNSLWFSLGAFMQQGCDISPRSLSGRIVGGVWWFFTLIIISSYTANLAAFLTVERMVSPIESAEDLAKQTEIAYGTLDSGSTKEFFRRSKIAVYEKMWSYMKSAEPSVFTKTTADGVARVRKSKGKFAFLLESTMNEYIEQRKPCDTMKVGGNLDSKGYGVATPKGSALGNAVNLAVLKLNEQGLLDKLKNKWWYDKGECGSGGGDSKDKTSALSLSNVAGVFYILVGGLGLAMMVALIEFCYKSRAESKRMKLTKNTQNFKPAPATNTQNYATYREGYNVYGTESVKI
Sequence of Glutamate receptor ionotropic, AMPA (Rattus norvegicus, UniProt P19491+P19492+P19493+P19490) (P19493 whole entry): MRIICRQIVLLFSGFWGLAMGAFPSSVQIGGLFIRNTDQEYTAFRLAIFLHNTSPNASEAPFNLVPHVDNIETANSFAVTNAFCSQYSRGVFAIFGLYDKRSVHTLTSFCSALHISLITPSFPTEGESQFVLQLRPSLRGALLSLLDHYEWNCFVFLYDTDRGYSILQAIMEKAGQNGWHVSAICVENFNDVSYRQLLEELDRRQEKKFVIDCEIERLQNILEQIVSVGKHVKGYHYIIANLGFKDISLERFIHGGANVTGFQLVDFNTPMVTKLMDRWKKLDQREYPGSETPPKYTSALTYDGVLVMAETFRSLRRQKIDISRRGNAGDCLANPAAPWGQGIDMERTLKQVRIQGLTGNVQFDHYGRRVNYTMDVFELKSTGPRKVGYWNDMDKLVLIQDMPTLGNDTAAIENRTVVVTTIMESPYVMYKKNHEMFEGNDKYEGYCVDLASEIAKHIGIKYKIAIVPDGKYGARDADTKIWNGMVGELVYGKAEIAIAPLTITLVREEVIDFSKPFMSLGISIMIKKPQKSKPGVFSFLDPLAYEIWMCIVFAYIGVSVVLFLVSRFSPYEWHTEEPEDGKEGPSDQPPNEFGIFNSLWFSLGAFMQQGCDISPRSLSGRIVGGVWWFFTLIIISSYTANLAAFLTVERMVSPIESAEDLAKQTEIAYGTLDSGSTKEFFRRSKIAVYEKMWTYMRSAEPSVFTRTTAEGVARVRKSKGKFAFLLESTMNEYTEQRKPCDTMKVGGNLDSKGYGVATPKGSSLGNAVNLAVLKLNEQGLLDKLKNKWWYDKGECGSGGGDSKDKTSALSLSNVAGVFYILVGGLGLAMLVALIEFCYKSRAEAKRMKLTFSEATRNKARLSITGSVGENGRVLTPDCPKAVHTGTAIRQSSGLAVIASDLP
Sequence of Glutamate receptor ionotropic, AMPA (Rattus norvegicus, UniProt P19491+P19492+P19493+P19490) (P19490 whole entry): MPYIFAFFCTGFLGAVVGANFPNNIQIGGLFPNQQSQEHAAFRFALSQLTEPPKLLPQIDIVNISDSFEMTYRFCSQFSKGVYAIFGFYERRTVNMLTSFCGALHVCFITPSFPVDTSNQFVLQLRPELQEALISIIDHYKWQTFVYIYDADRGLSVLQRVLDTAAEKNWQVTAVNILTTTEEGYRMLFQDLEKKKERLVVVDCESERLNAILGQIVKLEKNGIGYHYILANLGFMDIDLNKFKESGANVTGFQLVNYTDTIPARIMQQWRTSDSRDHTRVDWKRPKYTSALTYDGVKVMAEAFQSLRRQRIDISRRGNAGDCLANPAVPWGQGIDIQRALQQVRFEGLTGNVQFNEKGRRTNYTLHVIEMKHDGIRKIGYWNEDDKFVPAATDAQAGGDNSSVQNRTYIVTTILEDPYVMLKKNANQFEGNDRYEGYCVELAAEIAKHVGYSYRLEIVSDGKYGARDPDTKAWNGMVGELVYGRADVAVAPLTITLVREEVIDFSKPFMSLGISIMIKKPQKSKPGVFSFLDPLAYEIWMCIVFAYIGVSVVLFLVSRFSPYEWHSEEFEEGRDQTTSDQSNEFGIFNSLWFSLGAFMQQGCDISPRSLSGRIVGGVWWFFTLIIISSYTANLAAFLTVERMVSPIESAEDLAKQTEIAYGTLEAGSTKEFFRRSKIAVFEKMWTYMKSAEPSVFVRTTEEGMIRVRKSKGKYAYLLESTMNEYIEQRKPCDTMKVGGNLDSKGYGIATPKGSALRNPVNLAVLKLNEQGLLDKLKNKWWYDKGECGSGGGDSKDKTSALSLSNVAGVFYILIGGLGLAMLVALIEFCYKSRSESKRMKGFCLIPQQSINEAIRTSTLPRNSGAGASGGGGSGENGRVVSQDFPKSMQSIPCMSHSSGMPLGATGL

On to `NCCCNCCCCNCCCNC(=O)c1cc2ccccc2[nH]1`, for which, in test [1], the half-maximal inhibitory concentration (IC50) entry is given as “Not Active”. On to `CCCC(=O)N[C@@H](Cc1c[nH]c2ccccc12)C(=O)NCCCNCCCCNCCCN`, for which the IC50 in test [2] was 300 nM. Turning to `CCCC(=O)N[C@@H](Cc1ccc2ccccc2c1)C(=O)NCCCNCCCCNCCCN`, it took 100 nM to reach half-maximal inhibition in test [2] (IC50). Against the preceding compound, the IC50 is about 3-fold lower. For the compound `CCCC(=O)N1Cc2ccc(O)cc2CC1C(=O)NCCCNCCCCNCCCN` (stereo not drawn), the IC50 in test [2] came out at 220 nM.

Consider `CCCC(=O)N1C[C@H](OCc2ccccc2)C[C@H]1C(=O)NCCCNCCCCNCCCN`, for which, in test [2], the IC50 was determined as 260 nM.

Regarding `CCCC(=O)NC1(C(=O)NCCCNCCCCNCCCN)CCc2ccccc2C1` (stereo not drawn), half-maximal inhibition in test [2] (IC50) was put at 250 nM.

In test [2], `CCCC(=O)N[C@@H](Cc1ccc(-c2ccccc2)cc1)C(=O)NCCCNCCCCNCCCN` came in with an IC50 of 80 nM. In test [2], `CCCC(=O)N1CCC(C(=O)NCCCNCCCCNCCCN)(c2ccccc2)CC1` registered an IC50 of 1320 nM.

`CCCC(=O)N[C@H](Cc1ccc(O)cc1)C(=O)NCCCNCCCCNCCCN`: the IC50 in test [2] was 70 nM. With `CCCC(=O)N1c2ccccc2CC1C(=O)NCCCNCCCCNCCCN` (stereo not drawn), in test [2], it took 1390 nM to reach half-maximal inhibition (IC50). On to `CCCC(=O)NC1(C(=O)NCCCNCCCCNCCCN)Cc2ccccc2C1`, for which the IC50 in test [2] worked out at 190 nM. Take `CCCC(=O)N[C@H](C(=O)NCCCNCCCCNCCCN)C(c1ccccc1)c1ccccc1`: in test [2], the IC50 amounted to 300 nM. Against the preceding compound, the IC50 is about 1.6-fold higher. On the same count and under the same terms, the same measure for `CCCC(=O)N1C[C@@H](Oc2ccc3ccccc3c2)C[C@H]1C(=O)NCCCNCCCCNCCCN`: 1040 nM; for `CCCC(=O)N1Cc2ccccc2C[C@H]1C(=O)NCCCNCCCCNCCCN`: 370 nM.

Compound `CCCC(=O)N[C@H](C(=O)NCCCNCCCCNCCCN)c1ccccc1` yielded an IC50 in test [2] of 320 nM. With `CCCC(=O)N[C@@H](CCc1ccccc1)C(=O)NCCCNCCCCNCCCN`, in test [2], the IC50 was found to be 170 nM.

For the compound `CCCC(=O)N[C@@H](Cc1ccccc1)C(=O)NCCCNCCCCNCCCN`, 430 nM corresponded to half-maximal inhibition in test [2] (IC50).

Consider `CCCC(=O)N[C@@H](Cc1ccc(O)cc1)C(=O)NCCCNCCCCNCCCN` [PHILANTHOTOXIN 343], for which half-maximal inhibition in test [2] (IC50) required 130 nM.
